The results in this text go back to patent US20260234180A1, “AMINO ACID DERIVATIVE, PREPARATION METHOD THEREFOR, AND PHARMACEUTICAL COMPOSITION FOR TREATING HEPATITIS, COMPRISING SAME” (priority 2021, published 2026).

Test [1] has as its target T1, NTCP (Na+ taurocholate cotransporting peptide), HepG2-hNTCP-C4 cell line (Homo sapiens, UniProt Q14973).
T1 construct: expressed in transfected cells; host or cells: HepG2-hNTCP-C4 (HepG2 cells expressing human NTCP)
T1 sequence (Q14973 1-349): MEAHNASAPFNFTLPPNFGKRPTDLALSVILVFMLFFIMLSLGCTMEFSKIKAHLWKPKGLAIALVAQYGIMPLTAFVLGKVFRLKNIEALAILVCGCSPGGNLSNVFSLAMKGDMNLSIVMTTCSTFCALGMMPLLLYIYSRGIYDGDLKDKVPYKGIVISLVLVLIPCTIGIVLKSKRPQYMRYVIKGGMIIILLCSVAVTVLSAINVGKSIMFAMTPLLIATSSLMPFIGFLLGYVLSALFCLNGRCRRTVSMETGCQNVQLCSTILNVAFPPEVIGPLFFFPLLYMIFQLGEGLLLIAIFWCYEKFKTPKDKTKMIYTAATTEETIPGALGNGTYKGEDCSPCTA
Put plainly: Inhibition of binding between FITC-labelled PreS1 and NTCP expressing cell line, flow cytometry. The settings on record: for relative fluorescence intensity compared to Comparative Example 1 (LCA): compound 50 µM, 20 nM PreS1, 4° C., 2 hours, lower = more inhibited binding. The protocol: HepG2-hNTCP-C4 cell line, a cell line expressing NTCP, was seeded in a 6 well plate at a density of 2×10^5/well and incubated at 4° C. for 30 minutes when the confluency reached 80% after overnight incubation for 2 days. Thereafter, 20 nM PreS1 (Myr-GTNL […]-Lys(FITC) (SEQ ID NO: 1)) and the compounds in Example 1, Examples 38 to 56 or the compound in Comparative Example 1 were treated by diluting in culture media at 4° C. at a concentration of 50 µM respectively, and the media was suctioned after 2 hours, followed by washing 3 times with 4° C. PBS. In order to take the cells off from the plate, 500 μl of 0.5 mM EDTA PBS solution was treated, and then incubation was performed at 37° C. for 15 minutes to check whether the cells fell off through an optical microscope. After taking off the cells by pipetting, the cells were collected in a 1.5 ml tube and centrifuged (4000 rpm, 4° C., 3 min). After suctioning the supernatant, the pellet was washed 3 times with 4° C. PBS, and then green fluorescence was measured via flow cytometry. In this case, taurocholic acid (TCA), a compound known as a substrate of NTCP to reduce the entry of HBV or HDV, was used as a positive control group.
In the graph at the top of FIG. 1, black (1) and red (2) indicate a negative control group with no treatment and an HBV-induced group (HBV preS1) solely treated with PreS1, respectively. Blue (HBV preS1+HBV entry inhibitor) (3) is the fluorescence value for each of Examples or Comparative Examples, evaluated that the closer to the negative control group, the more inhibited the binding between PreS1 and the NTCP cell line.
The experimental method was the same as in the Experimental Example 1-1, and 20 nM PreS1 and each compound were treated at 4 concentrations (0.2 μM, 2 μM, 10 μM, 50 μM).
With an expectation that there is a structure-activity relationship among compounds composed of bile acid and amino acids, for each of bile acids in Comparative Example 1 (lithocholic acid, LCA), Comparative Example 2 (ursodeoxycholic acid, UDCA), Comparative Example 3 (cholic acid, CA), Comparative Example 4 (hyodeoxycholic acid, HDCA), Comparative Example 5 (deoxycholic acid, DCA), and Comparative Example 6 (chenodeoxycholic acid, CDCA), an evaluation experiment was conducted on an ability to inhibit the binding between PreS1 and NTCP expressing cell lines, and also for Examples 1 (LCA-Ile) and Example 44 (LCA-Val) as well as the compounds in Example 2 (UDCA-Ile), Example 3 (UDCA-Val), Example 6 (CA-Ile), Example 7 (CA-Val), Example 8 (HDCA-Ile), Example 9 (HDCA-Val), Example 10 (DCA-Ile), Example 11 (DCA-Val), Example 14 (CDCA-Ile), and Example 15 (CDCA-Val) in which bile acid parts (lithocholic acid) of Example 1 (LCA-Ile) and Example 44 (LCA-Val) were substituted with other types of bile acids in Comparative Examples 2 to 6, an evaluation experiment was conducted on an ability to inhibit the binding between PreS1 and NTCP expressing cell lines. The experimental method was the same as in the Experimental Example 1-1, and 18 compounds in the Comparative Examples 1 to 6, Examples 1 to 3, Examples 6 to 11, Examples 14 to 15, and Example 44 were treated at a concentration of 50 µM along with 20 nM PreS1.
In FIG. 9, an evaluation experiment was conducted to check a degree of inhibiting the binding between PreS1 and NTCP expressing cell lines for compounds in Examples 4 to 5, Examples 12 to 13, Examples 16 to 17, and Comparative Examples 2 (ursodeoxycholic acid, UDCA), Comparative Examples 5 (deoxycholic acid, DCA), and Comparative Examples 6 (chenodeoxycholic acid, CDCA) according to the present disclosure. The experimental method was the same as the Experimental Example 1-1.
In the Experimental Examples 1-4, it was determined whether there is additionally concentration dependence for Example 4 (UDCA-Trp), a compound with good inhibitory ability. […]
For orientation: In flow cytometry, cells or beads pass a laser one at a time.

The subject of a further test is HBV virus. As to the kind of experiment: HBV infection of HepG2-NTCP cells, HBeAg ELISA analysis. The class given is cell-based, hepatitis B virus (HBV). The settings on record: 20 μM, O.D. 450 nm. As for the experimental part: Specifically, the HepG2-NTCP cell line was cultured on a 6-well plate, incubation was performed overnight, HBV inhibitors were treated at a concentration of 20 μM, and the positive control Myrcludex-B (MyrB) was treated at a concentration of 200 nM, followed by culture for 24 hours. After HBV infection into the cells to make HBV 3000 genome equivalent per ml/cell (Geq/cell), the cell culture medium was replaced (medium changing, MC) a day after the viral infection to remove the virus unattached to cell membranes. In order to measure an amount of virus that entered the cell, medium changing (MC) was performed once more 4 days after viral infection. 2 days after replacement, HBeAg ELISA analysis was performed using a supernatant, and Southern blot analysis was performed with cell pellets.
HBeAg ELISA analysis was performed using an HBeAg ELISA kit (sanbio, Wantai HBeAg ELISA, cat #WB-2496) for the supernatant obtained by the method in Experimental Example 4-1.
First, a negative control group (Mock), positive control group (MyrB), and samples according to the present disclosure were loaded, by 50 μl each to be triplicate, onto a 96-well plate coated with capture Ab. In this case, Example 1 (LCA-ILE), Example 44 (LCA-Val), Example 52 (LCA-Tyr), Example 51 (LCA-Ser), Example 55 (LCA-Glu), Example 2 (UDCA-Ile), Example 3 (UDCA-Val), Example 25 (LCA-Val-Trp), Example 10 (DCA-Ile), Comparative Example 1 (LCA), and Comparative Example 2 (UDCA) were used as the sample.
The HRP-conjugated detection antibody was loaded into each well by 50 μl, followed by a reaction at 37° C. for 30 minutes. Washing buffer (1×PBS, 0.5% Tween20) was added by 200 μl, and washing was performed 5 times. 50 μl of chromogen solution A and 50 μl of chromogen solution B were added to each well, and a reaction was carried out in the darkness at 37° C. for 15 minutes. The stop solution was added to each well by 50 μl each to stop the reaction, and the amount of HBeAg was measured by measuring the absorbance (optical density, O.D.) level in the 450 nm wavelength band.

As to `C[C@H](CCC(=O)N[C@@H](CS)C(=O)O)[C@H]1CC[C@H]2[C@@H]3CC[C@@H]4C[C@H](O)CC[C@]4(C)[C@H]3CC[C@]12C` [Example 40, (R)-2-((R)-4-((3R,5R,8R,9S,10S,13R,14S,17R)-3-hydroxy-10,13-dimethyl-hexadecahydro-1H-cyclopenta[a]phenanthren-17-yl)pentanamido)-3-mercaptopropanoic acid], the “relative fluorescence intensity compared to Comparative Example 1 (LCA)” value (from here on “relative fluorescence intensity”) in test [1] was “low and lower”.
On the same count and under the same terms, the same measure for `C[C@H](CCC(=O)N[C@@H](Cc1cnc[nH]1)C(=O)O)[C@H]1CC[C@H]2[C@@H]3CC[C@@H]4C[C@H](O)CC[C@]4(C)[C@H]3CC[C@]12C` [Example 43, (S)-2-((R)-4-((3R,5R,8R,9S,10S,13R,14S,17R)-3-hydroxy-10,13-dimethyl-hexadecahydro-1H-cyclopenta[a]phenanthren-17-yl)pentanamido)-3-(1H-imidazol-5-yl)propanoic acid]: “low”.
The same measure, in the same setting: then `C[C@H](NC(=O)CC[C@@H](C)[C@H]1CC[C@H]2[C@@H]3CC[C@@H]4C[C@H](O)CC[C@]4(C)[C@H]3CC[C@]12C)C(=O)O` [Example 46, (S)-2-((R)-4-((3R,5R,8R,9S,10S,13R,14S,17R)-3-hydroxy-10,13-dimethyl-hexadecahydro-1H-cyclopenta[a]phenanthren-17-yl)pentanamido)-3-propanoic acid], with “low”; and `CC(C)C[C@H](NC(=O)CC[C@@H](C)[C@H]1CC[C@H]2[C@@H]3CC[C@@H]4C[C@H](O)CC[C@]4(C)[C@H]3CC[C@]12C)C(=O)O` [Example 47], with “low and lower”.
Still for that read-out and setting: the same measure for `CSCC[C@H](NC(=O)CC[C@@H](C)[C@H]1CC[C@H]2[C@@H]3CC[C@@H]4C[C@H](O)CC[C@]4(C)[C@H]3CC[C@]12C)C(=O)O` [Example 48, (S)-2-((R)-4-((3R,5R,8R,9S,10S,13R,14S,17R)-3-hydroxy-10,13-dimethyl-hexadecahydro-1H-cyclopenta[a]phenanthren-17-yl)pentanamido)-4-(methylthio)butanoic acid]: “low and lower”; for `C[C@H](CCC(=O)N[C@@H](Cc1ccccc1)C(=O)O)[C@H]1CC[C@H]2[C@@H]3CC[C@@H]4C[C@H](O)CC[C@]4(C)[C@H]3CC[C@]12C` [Example 49, (S)-2-((R)-4-((3R,5R,8R,9S,10S,13R,14S,17R)-3-hydroxy-10,13-dimethyl-hexadecahydro-1H-cyclopenta[a]phenanthren-17-yl)pentanamido)-3-phenylpropanoic acid]: “low”.
For the molecule `C[C@H](CCC(=O)N[C@@H](Cc1c[nH]c2ccccc12)C(=O)O)[C@H]1CC[C@H]2[C@@H]3CC[C@@H]4C[C@H](O)CC[C@]4(C)[C@H]3CC[C@]12C` [Example 50, (S)-2-((R)-4-((3R,5R,8R,9S,10S,13R,14S,17R)-3-hydroxy-10,13-dimethyl-hexadecahydro-1H-cyclopenta[a]phenanthren-17-yl)pentanamido)-3-(1H-indol-3-yl)propanoic acid], the “effect of inhibiting the binding between PreS1 and NTCP expressing cell lines by treatment concentration” value in test [1] (0.2 μM, 2 μM, 10 μM, 50 μM, 20 nM PreS1) was “concentration dependent”. Further, the “relative fluorescence intensity” value in test [1] was “low and lower”.
In the case of `C[C@H](CCC(=O)N[C@@H](CO)C(=O)O)[C@H]1CC[C@H]2[C@@H]3CC[C@@H]4C[C@H](O)CC[C@]4(C)[C@H]3CC[C@]12C` [Example 51, (S)-3-hydroxy-2-((R)-4-((3R,5R,8R,9S,10S,13R,14S,17R)-3-hydroxy-10,13-dimethyl-hexadecahydro-1H-cyclopenta[a]phenanthren-17-yl)pentanamido)propanoic acid], the “HBeAg absorbance level relative to the negative control group (Mock)” value in the test with HBV virus is “relatively lower”. Besides, in test [1], the “relative fluorescence intensity” value is listed as “low”.
For `C[C@H](CCC(=O)N[C@@H](CCCCN)C(=O)O)[C@H]1CC[C@H]2[C@@H]3CC[C@@H]4C[C@H](O)CC[C@]4(C)[C@H]3CC[C@]12C` [Example 56, (S)-6-amino-2-((R)-4-((3R,5R,8R,9S,10S,13R,14S,17R)-3-hydroxy-10,13-dimethyl-hexadecahydro-1H-cyclopenta[a]phenanthren-17-yl)pentanamido)hexanoic acid], the “relative fluorescence intensity” value in test [1] was “low”.
